Source: US8802597B2, “Herbicidal pyrimidines” (E I du Pont de Nemours and Company, priority 2003, dated 2014)
Blank lines part the entries; values can stand above or below the molecule they belong to.

How the values were obtained:
[1] = test system: Italian ryegrass (Lolium multiflorum); experiment: Test C postemergence; type: in vivo; conditions: for Plant response rating, Ryegrass, Italian: 250 g ai/ha, scale 0 to 100; for pest or weed control at 125 g/ha: 125 g ai/ha
Summary of the method: (§1)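 Test compounds, formulated in a non-phytotoxic solvent mix with surfactant, were applied to freshly planted seeds and, at the same time, to emerged plants at 1- to 4-leaf stage (2 to 18 cm). After 12 to 14 days in the greenhouse, response was scored visually versus controls, 0 = no effect, 100 = complete control.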

[2] = test system: blackgrass (Alopecurus myosuroides); experiment: Test C postemergence; type: in vivo; conditions: for Plant response rating, Blackgrass: scale 0 to 100
Summary of the method: as §1

[3] = test system: canarygrass (Phalaris minor); experiment: Test C postemergence; type: in vivo; conditions: for Plant response rating, Canarygrass: scale 0 to 100
Summary of the method: as §1

[4] = test system: downy brome (Bromus tectorum); experiment: Test C postemergence; type: in vivo; conditions: for Plant response rating, Bromegrass, Downy: scale 0 to 100
Summary of the method: as §1

[5] = test system: green foxtail (Setaria viridis); experiment: Test C postemergence; type: in vivo; conditions: for Plant response rating, Foxtail, Green: 250 g ai/ha, scale 0 to 100; for pest or weed control at 125 g/ha: 125 g ai/ha
Summary of the method: as §1

[6] = test system: wheat (Triticum aestivum); experiment: Test C postemergence; type: in vivo; conditions: for Plant response rating, Wheat: 250 g ai/ha, scale 0 to 100; for plant injury at 125 g/ha: 125 g ai/ha
Summary of the method: as §1

[7] = test system: wild oat (Avena fatua); experiment: Test C postemergence; type: in vivo; conditions: for Plant response rating, Oat, Wild: 250 g ai/ha, scale 0 to 100; for pest or weed control at 125 g/ha: 125 g ai/ha
Summary of the method: as §1

[8] = test system: windgrass (Apera spica-venti); experiment: Test C postemergence; type: in vivo; conditions: for Plant response rating, Windgrass: 250 g ai/ha, scale 0 to 100; for pest or weed control at 125 g/ha: 125 g ai/ha
Summary of the method: as §1

[9] = test system: winter barley (Hordeum vulgare); experiment: Test C postemergence; type: in vivo; conditions: for Plant response rating (scale of 0 to 100), Barley: 31 g ai/ha; for Plant response rating, Barley: scale 0 to 100; for plant injury at 62 g/ha: 62 g ai/ha
Summary of the method: as §1

[10] = test system: late watergrass (Echinochloa oryzicola); experiment: Test E flooded paddy water application; type: in vivo; conditions: Flood, 21 days, scale 0 to 100 (0 no effect, 100 complete control); for Plant response rating, Watergrass, Late: 16 g ai/ha
Summary of the method: (§2)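 Response scored visually on a 0–100 scale (100 = complete control) at 21 days against untreated pots. Treatment was into paddy water 3 cm deep over silt loam, with plants at the 2.0–2.5-leaf stage, grown under 16-h light at 29.5/26.7 °C day/night.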

[11] = test system: smallflower umbrella sedge (Cyperus difformis); experiment: Test E flooded paddy water application; type: in vivo; conditions: Flood, 21 days, scale 0 to 100 (0 no effect, 100 complete control); for Plant response rating, Sedge, Umbrella: 16 g ai/ha
Summary of the method: as §2

[12] = Lolium multiflorum, post-emergence, scale 0 to 100 (0 no effect, 100 complete control), read-out: Ryegrass, Italian plant response rating
[13] = Setaria viridis, post-emergence, scale 0 to 100 (0 no effect, 100 complete control), read-out: Foxtail, Green plant response rating
[14] = Triticum aestivum, post-emergence, scale 0 to 100 (0 no effect, 100 complete control), read-out: Wheat plant response rating
[15] = Avena fatua, post-emergence, scale 0 to 100 (0 no effect, 100 complete control), read-out: Oat, Wild plant response rating
[16] = Apera spica-venti, post-emergence, scale 0 to 100 (0 no effect, 100 complete control), read-out: Windgrass plant response rating
[17] = Hordeum vulgare, post-emergence, scale 0 to 100 (0 no effect, 100 complete control), read-out: Barley plant response rating

SMILES: COC(=O)c1nc(C(C)C)nc(N)c1Br [Compound 3]
- Plant response rating (scale of 0 to 100), Ryegrass, Italian ([1]; 31 g ai/ha): 35
- Plant response rating, Ryegrass, Italian [1]: 35
- pest or weed control at 62 g/ha ([1]; Lolium multiflorum, post-emergence, 62 g ai/ha, scale 0 to 100 (0 no effect, 100 complete control), read-out: Ryegrass, Italian plant response rating): 35%
- pest or weed control at 125 g/ha [1, 12]: 35%
- Plant response rating (scale of 0 to 100), Blackgrass ([2]; 31 g ai/ha): 0
- Plant response rating, Blackgrass ([2]; 125 g ai/ha): 0
- Plant response rating, Blackgrass ([2]; 250 g ai/ha): 0
- pest or weed control at 62 g/ha ([2]; Alopecurus myosuroides, post-emergence, 62 g ai/ha, scale 0 to 100 (0 no effect, 100 complete control), read-out: Blackgrass plant response rating): 0%
- Plant response rating (scale of 0 to 100), Canarygrass ([3]; 31 g ai/ha): 10
- Plant response rating, Canarygrass ([3]; 125 g ai/ha): 10
- Plant response rating, Canarygrass ([3]; 250 g ai/ha): 10
- pest or weed control at 62 g/ha ([3]; Phalaris minor, post-emergence, 62 g ai/ha, scale 0 to 100 (0 no effect, 100 complete control), read-out: Canarygrass plant response rating): 10%
- Plant response rating (scale of 0 to 100), Bromegrass, Downy ([4]; 31 g ai/ha): 20
- Plant response rating, Bromegrass, Downy ([4]; 125 g ai/ha): 20
- Plant response rating, Bromegrass, Downy ([4]; 250 g ai/ha): 20
- pest or weed control at 62 g/ha ([4]; Bromus tectorum, post-emergence, 62 g ai/ha, scale 0 to 100 (0 no effect, 100 complete control), read-out: Bromegrass, Downy plant response rating): 20%
- Plant response rating (scale of 0 to 100), Foxtail, Green ([5]; 31 g ai/ha): 20
- Plant response rating, Foxtail, Green [5]: 35
- pest or weed control at 62 g/ha ([5]; Setaria viridis, post-emergence, 62 g ai/ha, scale 0 to 100 (0 no effect, 100 complete control), read-out: Foxtail, Green plant response rating): 30%
- pest or weed control at 125 g/ha [5, 13]: 35%
- Plant response rating (scale of 0 to 100), Wheat ([6]; 31 g ai/ha): 0
- Plant response rating, Wheat [6]: 10
- plant injury at 62 g/ha ([6]; Triticum aestivum, post-emergence, 62 g ai/ha, scale 0 to 100 (0 no effect, 100 complete control), read-out: Wheat plant response rating): 0%
- plant injury at 125 g/ha [6, 14]: 0%
- Plant response rating (scale of 0 to 100), Oat, Wild ([7]; 31 g ai/ha): 30
- Plant response rating, Oat, Wild [7]: 40
- pest or weed control at 62 g/ha ([7]; Avena fatua, post-emergence, 62 g ai/ha, scale 0 to 100 (0 no effect, 100 complete control), read-out: Oat, Wild plant response rating): 30%
- pest or weed control at 125 g/ha [7, 15]: 40%
- Plant response rating (scale of 0 to 100), Windgrass ([8]; 31 g ai/ha): 10
- Plant response rating, Windgrass [8]: 30
- pest or weed control at 62 g/ha ([8]; Apera spica-venti, post-emergence, 62 g ai/ha, scale 0 to 100 (0 no effect, 100 complete control), read-out: Windgrass plant response rating): 30%
- pest or weed control at 125 g/ha [8, 16]: 30%
- Plant response rating (scale of 0 to 100), Barley [9]: 0
- Plant response rating, Barley ([9]; 125 g ai/ha): 0
- Plant response rating, Barley ([9]; 250 g ai/ha): 30
- plant injury at 62 g/ha [9, 17]: 0%
- melting point: 107 to 109 °C

SMILES: Nc1nc(C2CC2)nc(C(=O)OCc2ccccc2)c1Cl [Compound 78, phenylmethyl 6-amino-5-chloro-2-cyclopropyl-4-pyrimidinecarboxylate]
- Plant response rating (scale of 0 to 100), Ryegrass, Italian ([1]; 31 g ai/ha): 0
- Plant response rating (scale of 0 to 100), Ryegrass, Italian ([1]; 62 g ai/ha): 10
- Plant response rating, Ryegrass, Italian [1]: 25
- pest or weed control at 125 g/ha [1, 12]: 20%
- Plant response rating (scale of 0 to 100), Blackgrass ([2]; 31 g ai/ha): 0
- Plant response rating (scale of 0 to 100), Blackgrass ([2]; 62 g ai/ha): 5
- Plant response rating, Blackgrass ([2]; 250 g ai/ha): 50
- pest or weed control at 125 g/ha ([2]; Alopecurus myosuroides, post-emergence, 125 g ai/ha, scale 0 to 100 (0 no effect, 100 complete control), read-out: Blackgrass plant response rating): 5%
- Plant response rating (scale of 0 to 100), Canarygrass ([3]; 31 g ai/ha): 0
- Plant response rating (scale of 0 to 100), Canarygrass ([3]; 62 g ai/ha): 0
- Plant response rating, Canarygrass ([3]; 250 g ai/ha): 0
- pest or weed control at 125 g/ha ([3]; Phalaris minor, post-emergence, 125 g ai/ha, scale 0 to 100 (0 no effect, 100 complete control), read-out: Canarygrass plant response rating): 0%
- Plant response rating (scale of 0 to 100), Bromegrass, Downy ([4]; 31 g ai/ha): 5
- Plant response rating (scale of 0 to 100), Bromegrass, Downy ([4]; 62 g ai/ha): 10
- Plant response rating, Bromegrass, Downy ([4]; 250 g ai/ha): 55
- pest or weed control at 125 g/ha ([4]; Bromus tectorum, post-emergence, 125 g ai/ha, scale 0 to 100 (0 no effect, 100 complete control), read-out: Bromegrass, Downy plant response rating): 15%
- Plant response rating (scale of 0 to 100), Foxtail, Green ([5]; 31 g ai/ha): 25
- Plant response rating (scale of 0 to 100), Foxtail, Green ([5]; 62 g ai/ha): 40
- Plant response rating, Foxtail, Green [5]: 75
- pest or weed control at 125 g/ha [5, 13]: 70%
- Plant response rating (scale of 0 to 100), Wheat ([6]; 31 g ai/ha): 20
- Plant response rating (scale of 0 to 100), Wheat ([6]; 62 g ai/ha): 20
- Plant response rating, Wheat [6]: 55
- plant injury at 125 g/ha [6, 14]: 30%
- Plant response rating (scale of 0 to 100), Oat, Wild ([7]; 31 g ai/ha): 5
- Plant response rating (scale of 0 to 100), Oat, Wild ([7]; 62 g ai/ha): 10
- Plant response rating, Oat, Wild [7]: 60
- pest or weed control at 125 g/ha [7, 15]: 60%
- Plant response rating (scale of 0 to 100), Windgrass ([8]; 31 g ai/ha): 5
- Plant response rating (scale of 0 to 100), Windgrass ([8]; 62 g ai/ha): 30
- Plant response rating, Windgrass [8]: 40
- pest or weed control at 125 g/ha [8, 16]: 30%
- Plant response rating (scale of 0 to 100), Barley [9]: 5
- Plant response rating, Barley ([9]; 250 g ai/ha): 90
- plant injury at 62 g/ha [9, 17]: 5%
- plant injury at 125 g/ha ([9]; Hordeum vulgare, post-emergence, 125 g ai/ha, scale 0 to 100 (0 no effect, 100 complete control), read-out: Barley plant response rating): 30%
- melting point: 126 to 128 °C

Second part, led by results:

- melting point: 136 to 137 °C
SMILES: CCOC(=O)c1nc(-c2ccc(Br)cc2)nc(N)c1Cl [Compound 94, ethyl 6-amino-2-(4-bromophenyl)-5-chloro-4-pyrimidinecarboxylate]
- Watergrass, Late plant response rating ([10]; 32 g ai/ha): 0
- Watergrass, Late plant response rating ([10]; 64 g ai/ha): 0
- Watergrass, Late plant response rating ([10]; 125 g ai/ha): 0
- Watergrass, Late plant response rating ([10]; 250 g ai/ha): 0
- Plant response rating, Watergrass, Late [10]: 0
- Sedge, Umbrella plant response rating ([11]; 32 g ai/ha): 100
- Sedge, Umbrella plant response rating ([11]; 64 g ai/ha): 100
- Sedge, Umbrella plant response rating ([11]; 125 g ai/ha): 100
- Sedge, Umbrella plant response rating ([11]; 250 g ai/ha): 100
- Plant response rating, Sedge, Umbrella [11]: 100

- melting point: 157 to 158 °C (dec.)
SMILES: Nc1nc(-c2ccc(Br)cc2)nc(C(=O)O)c1Cl [Compound 95, 6-amino-2-(4-bromophenyl)-5-chloro-4-pyrimidinecarboxylic acid]
- Watergrass, Late plant response rating ([10]; 32 g ai/ha): 0
- Watergrass, Late plant response rating ([10]; 64 g ai/ha): 0
- Watergrass, Late plant response rating ([10]; 125 g ai/ha): 0
- Watergrass, Late plant response rating ([10]; 250 g ai/ha): 0
- Plant response rating, Watergrass, Late [10]: 0
- Sedge, Umbrella plant response rating ([11]; 32 g ai/ha): 95
- Sedge, Umbrella plant response rating ([11]; 64 g ai/ha): 95
- Sedge, Umbrella plant response rating ([11]; 125 g ai/ha): 95
- Sedge, Umbrella plant response rating ([11]; 250 g ai/ha): 95
- Plant response rating, Sedge, Umbrella [11]: 0

- melting point: 223 to 224 °C
SMILES: COC(=O)c1nc(-c2ccc(Br)cc2)nc(N)c1Cl [Compound 96, methyl 6-amino-2-(4-bromophenyl)-5-chloro-4-pyrimidinecarboxylate]
- Watergrass, Late plant response rating ([10]; 32 g ai/ha): 0
- Watergrass, Late plant response rating ([10]; 64 g ai/ha): 0
- Watergrass, Late plant response rating ([10]; 125 g ai/ha): 0
- Watergrass, Late plant response rating ([10]; 250 g ai/ha): 0
- Plant response rating, Watergrass, Late [10]: 0
- Sedge, Umbrella plant response rating ([11]; 32 g ai/ha): 100
- Sedge, Umbrella plant response rating ([11]; 64 g ai/ha): 100
- Sedge, Umbrella plant response rating ([11]; 125 g ai/ha): 100
- Sedge, Umbrella plant response rating ([11]; 250 g ai/ha): 100
- Plant response rating, Sedge, Umbrella [11]: 100
